Laboratory results taken from patent publication US20220333078A1, “Method for ex vivo expansion CD34+HSPCs into NK cells using an aryl hydrocarbon receptor antagonist” (Stichting Radboud universitair medisch centrum, priority 2015, published 2022).

Tests used:
[1] = system: HSPC-NK cells; experiment: Proliferation (CFSE dilution) and viability of HSPC-NK cells cultured 7 days with MPA or CsA; assay type: cell-based, human
Procedure: HSPC-NK cells were cultured according to our culture protocol for 35 days. After 35 days, NK cells were labeled with 1 μM CFSE as described previously. After staining, cells were resuspended in differentiation medium at a concentration of 2E+6/mL and plated in duplicate in a 96-well plate. […] After 7 days, cells were harvested. The number of viable target cells was quantified by FCM by gating on forward scatter and side scatter and exclusion of 7-AAD positive cells. Proliferation was analyzed by determining the CFSE dilution within CD56+ cells.

[2] = system: K562 cells; experiment: K562 killing and IFN-γ production by NK cells cultured in the presence of MPA or CsA; assay type: cell-based, human
Procedure: Cell lines were labeled with 1 μM carboxyfluorescein diacetate succinimidyl ester (CFSE; Molecular Probes Invitrogen, Eugene, Oreg., USA) and primary AML blasts were labeled with 1.5 μM CFSE, both in a concentration of 1E+7/mL for 10 minutes at 37° C. The reaction was terminated by adding an equal volume of FCS. After washing, cells were resuspended in IMDM/10% FCS to a final concentration of 3E+5/mL. Target cells (3E+4) were co-cultured in triplicate with effector cells at different effector:target (E:T) ratios in a total volume of 200 μL IMDM/10% FCS in 96-wells round-bottom plates (Corning Incorporated). Effector cells and target cells alone were plated out in triplicate as controls. […] Cells were harvested and the number of viable target cells was quantified by FCM by gating on forward scatter and side scatter and exclusion of 7-AAD positive cells. Target cell survival was calculated as follows: % survival=([absolute number of viable CFSE+ target cells co-cultured with NK cells]/[absolute number of viable CFSE+ target cells cultured in medium])×100%. The percentage specific lysis was calculated as follows: % lysis=(100−[% survival]), as described earlier by Jedema et al. Degranulation of NK cells during overnight co-culture was determined as the percentage of CD107a expressing cells measured by FCM. […]

[3] = system: G-CSF mobilized CD34+HSPCs; experiment: Ex vivo cytokine-based expansion and NK cell differentiation of G-CSF mobilized peripheral blood CD34+HSPCs with or without 2 μM SR1; design: species or system human
Procedure: (§1) Bone marrow samples were collected from healthy donors after written informed consent. Bone marrow-derived mononuclear cells (BM-MNCs) were isolated by Ficoll-hypaque (1.077 g/mL; GE Healthcare, Uppsala, Sweden) density gradient centrifugation. Peripheral blood-derived mononuclear cells (PB-MNCs) were obtained from aphaeresis material from stem cell donors who were treated with G-CSF (Neupogen®) 10 μg/kg/day subcutaneously for 5 to 6 days, after written informed consent. CD34+HSPCs were isolated using anti-CD34 immunomagnetic beads (Miltenyi Biotech, Bergisch Gladbach, Germany) according to manufacturer's instructions. CD34+HSPCs were directly used for NK cell generation.
CD34+HSPCs were plated into 24-well or 6-well tissue culture plates (Corning Incorporated, Corning, N.Y., USA). Cells were expanded during 9 or 10 days with a high-dose cytokine cocktail (Expansion cocktail I) consisting of 25 ng/mL IL-7 (Immunotools), 25 ng/mL SCF (Immunotools), 25 ng/mL TPO (Cellgenix) and 25 ng/mL Flt3L (Immunotools). From day 9 or 10 until day 14 or 15, TPO was replaced by 20 ng/mL IL-15 (Miltenyi). After day 14 or 15, cell differentiation was initiated by replacing Expansion cocktail I by a new high-dose cytokine cocktail (Differentiation cocktail) consisting of 20 ng/mL IL-7, 20 ng/mL SCF, 20 ng/mL IL-15 and 1000 U/mL IL-2 (Proleukin®; Chiron, München, Germany). Where mentioned, 2 μM StemRegenin1 (SR1; Cellagen Technology, San Diego, Calif., USA) was added to the culture medium (see FIG. 1A). Cells were cultured in Cellgro GMP DC medium (Cellgenix, Freiburg, Germany) supplemented with 10% human serum (HS; Sanquin Bloodbank, Nijmegen, The Netherlands) and a low dose cytokine cocktail consisting of […] G-CSF (Filgrastim, “Neupogen”—Amgen Corp. USA), 10 μg/mL GM-CSF and 50 μg/mL IL-6 (both Immunotools, Friesoythe, Germany). During the first 14 or 15 days of culture, low molecular weight heparin (Clivarin®; Abbott, Wiesbaden, Germany) was added to the medium in a final concentration of 20 μg/mL. Freshly isolated CD34+ cells were plated at a concentration of 1-4E+5/mL. After 3 days of culture, cells were transferred to a new plate in order to deplete for stromal cells. From day 14 or 15 onward, cell counts were kept above 2E+6 cells/mL. Cell cultures were refreshed with at least 30% new medium every 2 to 3 days. Cultures were maintained at 37° C., in 95% humidity, and 5% CO2. NK cells were used in experiments after 5 weeks of culture.
(§2) Cell numbers and expression of cell-surface markers were determined by FCM. Anti-human CD45-ECD (J.33, Beckman Coulter, Woerden, The Netherlands) and anti-CD56-PC7 (HCD56, Biolegend, San Diego, Calif., USA) antibodies were used to follow cell number and NK cell differentiation during culture using the Coulter FC500 flow cytometer (Beckman Coulter). The population of viable CD45+ cells was determined by exclusion of 7-AAD (Sigma, St Louis, Mo., USA) positive cells. For phenotypical analysis, cells were incubated with antibodies in FCM buffer (PBS/0.5% bovine serum albumin (BSA; Sigma) for 30 minutes at 4° C. After washing, cells were resuspended in FCM buffer and analyzed. The following conjugated monoclonal antibodies were used for NK cell phenotyping: anti-NKG2A-PE (Z199; Beckman Coulter), anti-DNAM-1-FITC (DX 11; BD Biosciences Pharmingen, Breda, The Netherlands), anti-CD16-FITC (3G8), anti-CD3-FITC (UCHT1), anti-NKG2D-PE (1D11), anti-NKp30-PE (P30-15), anti-NKp44-PE (P44-8), anti-NKp46-PD (9E5), anti-CD158b-PE (Dx27), anti-CD158e-PE (Dx9), anti-CD158a/h-PE (HP-MA4), anti-CD62L-PE (DREG56), anti-CD253-PE (RIK-2), anti-CXCR3-PE (G025H7), anti-CXCR4-PE (12G5), anti-IgG1-PE (MOPC-21), anti-IgG2a-PE (MOPC-173), anti-IgG2b-PE (MCP-11), anti-IgG1-FITC (MOPC-21; all from Biolegend).

[4] = system: BM-derived CD34+HSPCs; experiment: Ex vivo cytokine-based expansion and NK cell differentiation of bone marrow-derived CD34+HSPCs with or without 2 μM SR1; design: species or system human
Procedure: as §1
CD34+HSPCs were plated into 24-well or 6-well tissue culture plates (Corning Incorporated, Corning, N.Y., USA). Cells were expanded during 9 or 10 days with a high-dose cytokine cocktail (Expansion cocktail I) consisting of 25 ng/mL IL-7 (Immunotools), 25 ng/mL SCF (Immunotools), 25 ng/mL TPO (Cellgenix) and 25 ng/mL Flt3L (Immunotools). […]
as §2, with “Anti-human CD45-ECD (J.33, Beckman Coulter, Woerden, The Netherlands) and anti-CD56-PC7 (HCD56, Biolegend, San Diego, Calif., USA) antibodies were used to follow cell number and NK cell differentiation during culture using the Coulter FC500 flow cytometer (Beckman Coulter).” left out

[5] = system: AhR; experiment: qRT-PCR of AhRR and NK cell transcription factors in HSPC-NK cultures with or without SR1; assay type: cell-based, human
Procedure: Total RNA from 0.5-2E+5 cells, collected weekly from HSPC-NK cell cultures, was isolated using the Quick-RNA™ MicroPrep Kit (Zymo Research, CA, USA). Next, cDNA was synthesized using M-MLV-reverse transcriptase (Invitrogen) in a standard reaction as described before, after which real-time PCR was performed using the following Taqman Gene expression assays (Applied Biosystems, Forster City, Calif., USA): AhRR (Hs01005075_m1); TOX (Hs01055573_m1); ID2 (Hs04187239_m1); EOMES (Hs00172872_m1); GATA3 (Hs00231122_m1); SH2D1B (Hs01592483_m1); IFNG (Hs00989291_m1); GZMB (Hs01554355_m1); PRF1 (Hs99999108_m1). For all genes, Ct values were normalized to GAPDH (Hs02758991_g1) by calculating ΔCt=Cttarget gene−CtGAPDH per sample. Finally, gene expression levels were quantified relative to GAPDH as follows: 2^(−[ΔCt]).
After 5 weeks of culture, CD56+ cells were isolated from the total cultured cells. For this purpose cells were stained for 15 minutes at 4° C. using the appropriate concentration of anti-CD56-PEcy7 (CD56-PC7 (HCD56, Biolegend). Cells were washed and resuspended in FACS buffer at a concentration of 1.5E+6/mL, and subsequently sorted at the FACSAria Cell Sorter (BD Biosciences).

[6] = system: CD56+NK cells; experiment: FCM phenotype of CD56+NK cells after 35 days of culture; assay type: cell-based, human; details: generated in the presence vs absence of SR1
Procedure: as §2

[7] = system: CD34+ cells enriched from UCB, BM and mobilized blood; experiment: SR1-based culture without heparin and low dose cytokines (UCB, BM and mobilized blood CD34+ cells); assay type: cell-based, human
Description: Representation of the new ex vivo SR1-based culture protocol used for the generation of NK cells. In the expansion step, CD34+ cells are expanded and differentiated into NK progenitors using SCF, Flt3L, IL-7, TPO and an aryl hydrocarbon antagonist, preferably SR1. Thereafter, NK progenitors are further differentiated using IL-15, IL-12 and/or IL-2.
In earlier studies, we exploited a phased based addition of cytokines in heparin-based basal media (5-7). Heparin is able to bind certain cytokines, reducing their degradation and perhaps presenting them in a more physiological manner. Furthermore, low dose cytokine cocktail containing G-CSF, GM-CSF and IL-6 was being used, which was based on studies using the fetal liver-derived stromal cell line AFT024 [59]. Since we observed that the AhR antagonist is a crucial component for the ex vivo expansion of NK cells from BM and mobilized blood CD34+HSPCs, we investigated whether we could simplify the culture method by leaving out heparine and low dose cytokines G-CSF, GM-SCF and IL-6 that have mainly an effect on myeloid progenitor cells (see FIG. 7).

[8] = FACS-sorted CD56+NK cells after 5 weeks, SR1 vs no SR1

COc1c(C)c2c(c(O)c1C/C=C(\C)CCC(=O)O)C(=O)OC2 [MPA, mycophenolic acid]
proliferation of HSPC-NK cells ([1]; MPA 0.1 μg/ml): already inhibited | NK cell viability ([1]; MPA 0.1 to 10 μg/mL or CsA 0.01 to 1 μg/mL): induced dose-dependent cell death | NK cell-mediated killing of K562 cells ([2]; NK cells cultured with drug, overnight, E:T 1:1): impaired killing | IFN-γ production ([2]; NK cells incubated with drug, overnight co-culture with K562, E:T 1:1): impaired IFN-γ production

CC(C)n1cnc2c(NCCc3ccc(O)cc3)nc(-c3csc4ccccc34)nc21 [SR1, StemRegenin 1]
Mean NK cell yield after 5 weeks of culture ([3]; G-CSF mobilized CD34+ cells, 2 μM SR1, range 115-904 fold, n=10): 235 fold | purity (NK cell differentiation, CD56+) ([3]; G-CSF mobilized CD34+HSPCs, with SR1, 5 weeks): 83%±9% | expansion of CD34+ cells ([3]; PB-derived HSPCs, addition of 2 μM SR1 vs no SR1): strongly enhanced expansion of CD34+ cells | amount of CD3+ T cells ([3]; SR1-based NK cell cultures): 0.1%±0.1% | average expansion of G-CSF-mobilized CD34+ cells ([3]; SR1-based protocol): 268 fold | frequency of CD34+ cells at the end of the culture process ([3]; SR1 cultures): 0.7%±0.4% | remaining non-NK cells: CD14+ and/or CD15+ mature monocytic and myelocytic cells ([3]; SR1 cultures, end of culture): 11%±6% | purity (NK cell differentiation, CD56+) ([4]; BM-derived CD34+ cells, with SR1, 5 weeks): 84%±18% | Mean NK cell yield after 5 weeks of culture ([4]; BM-derived CD34+HSPCs, 2 μM SR1, range 33-301, n=4): 129 fold | expansion of CD34+ cells ([4]; BM-derived HSPCs, addition of 2 μM SR1 vs no SR1): strongly enhanced expansion of CD34+ cells | IFN-γ mRNA expression ([5]; FACS-sorted CD56+NK cells after 5 weeks, not exposed to target cells, SR1 vs no SR1): not increased | GATA-3 and EAT-2 expression [5, 8]: similar | GZMB and PERF expression [5, 8]: slightly higher, but not significantly increased | TOX, ID2 and EOMES expression [5, 8]: did not observe increased expression | AhRR expression relative to GAPDH ([5]; total cells, 2 μM SR1 vs no SR1): efficient down regulation | EOMES expression relative to GAPDH ([5]; total cells, SR1 vs no SR1): upregulated from week three onward | GATA-3 and EAT-2 (SH2D1B) expression relative to GAPDH ([5]; total cells, SR1 vs no SR1): increased in cells cultured in the presence of SR1 | ID2 expression relative to GAPDH ([5]; total cells, SR1 vs no SR1): increased from day 14 onwards | TOX expression relative to GAPDH ([5]; total cells, from day 7 onward, SR1 vs no SR1): higher expression | presence of CD62L, CXCR3, DNAM-1 and TRAIL on CD56+ cells [6]: significantly higher | expansion of CD56+NK cells from CD34+ cells ([7]; 2 μM SR1 for 21 days, no heparin, G-CSF, GM-CSF, IL-6): promotes the expansion of CD56+NK cells | remaining non-NK cells, mainly CD14+ monocytic cells ([7]; SR1-based cultures without heparin and low dose cytokines): < 20%
